Publication PMC10353390, “Biological and Structural Analyses of New Potent Allosteric Inhibitors of HIV-1 Integrase” (Antimicrobial Agents and Chemotherapy, 2023)

Assays:
Assay type in all cases: cell-based
[1] = tested on: HIV-1 strains resistant to INSTIs, NRTIs, NNRTIs or PIs; details: for Fold change in EC50 relative to NL4-3, E92Q / Fold change in EC50 relative to NL4-3, G140S / Fold change in EC50 relative to NL4-3, G140S/Q148H / Fold change in EC50 relative to NL4-3, N155H / Fold change in EC50 relative to NL4-3, Q148H / Fold change in EC50 relative to NL4-3, Y143R / Fold change in EC50 relative to NL4-3, E92Q/N155H (pat.) / Fold change in EC50 relative to NL4-3, G140S/Q148H (pat.) / Fold change in EC50 relative to NL4-3, T97A/N155H (pat.): INSTI-resistant; for Fold change in EC50 relative to NL4-3, E92Q / Fold change in EC50 relative to NL4-3, G140S / Fold change in EC50 relative to NL4-3, G140S/Q148H / Fold change in EC50 relative to NL4-3, N155H / Fold change in EC50 relative to NL4-3, Q148H / Fold change in EC50 relative to NL4-3, Y143R / Fold change in EC50 relative to NL4-3, K103N/Y181C: NL4-3 background; for Fold change in EC50 relative to NL4-3, E92Q/N155H (pat.) / Fold change in EC50 relative to NL4-3, G140S/Q148H (pat.) / Fold change in EC50 relative to NL4-3, T97A/N155H (pat.): primary patient-derived strain; for Fold change in EC50 relative to NL4-3, NLAY351717: NRTI-resistant clone; for Fold change in EC50 relative to NL4-3, NLAY351753: NRTI/NNRTI-resistant clone; for Fold change in EC50 relative to NL4-3, K103N/Y181C: NRTI/NNRTIs group; for Fold change in EC50 relative to NL4-3, ARP-4595 / Fold change in EC50 relative to NL4-3, ARP-4596 / Fold change in EC50 relative to NL4-3, ARP-11801 / Fold change in EC50 relative to NL4-3, ARP-11803 / Fold change in EC50 relative to NL4-3, ARP-11807 / Fold change in EC50 relative to NL4-3, ARP-11808: PI-resistant virus
Description: To this end, we used both recombinant viruses constructed by introducing described drug resistance mutations into NL4-3 HIV-1 clone as well as drug-resistant clinical HIV-1 isolates.
MT4 cells growing exponentially at the density of 10^6/mL were infected with HIV-1 strain NL4-3 at a multiplicity of infection (MOI) of 0.001 for 2 h in the presence of different concentrations of compounds, and the CellTiter-Glo luminescent reagent (Promega) was used to quantify cell viability as described previously ([12]).

NL4-3 HIV-1 strain = assay: Multiple-round infection assay in MT4 cells, NL4-3; details: Human immunodeficiency virus 1, NL43, MT4; wild type NL4-3, Table 9; read-out: EC50 NL4-3
[2] = tested on: NL4-3 HIV-1 with INLAI-selected IN single point mutations

Compound	Fold change in EC50 relative to NL4-3, E92Q [1]	Fold change in EC50 relative to NL4-3, G140S [1]	Fold change in EC50 relative to NL4-3, G140S/Q148H [1]	Fold change in EC50 relative to NL4-3, N155H [1]	Fold change in EC50 relative to NL4-3, Q148H [1]	Fold change in EC50 relative to NL4-3, Y143R [1]	Fold change in EC50 relative to NL4-3, E92Q/N155H (pat.) [1]	Fold change in EC50 relative to NL4-3, G140S/Q148H (pat.) [1]	Fold change in EC50 relative to NL4-3, T97A/N155H (pat.) [1]	Fold change in EC50 relative to NL4-3, NLAY351717 [1]	Fold change in EC50 relative to NL4-3, NLAY351753 [1]	Fold change in EC50 relative to NL4-3, K103N/Y181C [1]	Fold change in EC50 relative to NL4-3, ARP-4595 [1]	Fold change in EC50 relative to NL4-3, ARP-4596 [1]	Fold change in EC50 relative to NL4-3, ARP-11801 [1]	Fold change in EC50 relative to NL4-3, ARP-11803 [1]	Fold change in EC50 relative to NL4-3, ARP-11807 [1]	Fold change in EC50 relative to NL4-3, ARP-11808 [1]	also measured
Cc1cn([C@H]2C[C@H](N=[N+]=[N-])[C@@H](CO)O2)c(=O)[nH]c1=O [AZT, azidothymidine]	1	1	1	1	1	1	1	1	4	150	210	0.1	2	1	1	2	2	5	
CC(C)CN(C[C@@H](O)[C@H](Cc1ccccc1)NC(=O)O[C@H]1CO[C@H]2OCC[C@H]21)S(=O)(=O)c1ccc(N)cc1 [DRV, darunavir]			1							1	1	1	1	1	31	24	12	240	
O=C1Nc2ccc(Cl)cc2[C@@](C#CC2CC2)(C(F)(F)F)O1 [EFV, efavirenz]	1	1	1	1	1	1	1	1	2	2	39	51	1	1	0.5	1	2	1	
COc1cc2c(cc1Cc1cccc(Cl)c1F)c(=O)c(C(=O)O)cn2[C@H](CO)C(C)C [EVG, elvitegravir]	24	2	2500	12	3	2	200	2000	440	1	1	1	1	1	1	1	2	2	EC50 (NL4-3 HIV-1 strain): 2.2 ± 1.2 nM; EC50 fold change compared to wild type NL4-3, A128T ([2]; NL4-3 IN A128T): 1; EC50 fold change compared to wild type NL4-3, H171Q ([2]; NL4-3 IN H171Q): 1; EC50 fold change compared to wild type NL4-3, N222K ([2]; NL4-3 IN N222K): 1; EC50 fold change compared to wild type NL4-3, T174I ([2]; NL4-3 IN T174I): 1; EC50 fold change compared to wild type NL4-3, Y99H ([2]; NL4-3 IN Y99H): 1
CC(C)(C)NC(=O)[C@@H]1CN(Cc2cccnc2)CCN1C[C@@H](O)C[C@@H](Cc1ccccc1)C(=O)N[C@H]1c2ccccc2C[C@H]1O [IDV, indinavir]	1		1	1		1				1	1	1	5	8	92	260	36	59	
Cc1cc(/C=C/C#N)cc(C)c1Nc1ccnc(Nc2ccc(C#N)cc2)n1 [RPV, rilpivirine]		1	1		1		1	1	1	1	0.4	3	1	1	0.4	1	1	1	
